Results from patent publication US7998965B2, “Glutamate aggrecanase inhibitors” (Wyeth LLC, priority 2005, dated 2011).
Where two headings read alike, the source gives them in different places.

Legend:
[1] = molecular target: T1, purified recombinant human Aggrecanase-1 (rAgg1) (Homo sapiens, UniProt O75173); assay: In vitro fluorescence screen for Aggrecanase-1 inhibitors; type: biochemical; details: Table 1; for IC50: read-out: Agg1 IC50; for Ki: enzyme not given, column follows Agg1 IC50, read-out: Ki
T1 sequence (O75173 213-837): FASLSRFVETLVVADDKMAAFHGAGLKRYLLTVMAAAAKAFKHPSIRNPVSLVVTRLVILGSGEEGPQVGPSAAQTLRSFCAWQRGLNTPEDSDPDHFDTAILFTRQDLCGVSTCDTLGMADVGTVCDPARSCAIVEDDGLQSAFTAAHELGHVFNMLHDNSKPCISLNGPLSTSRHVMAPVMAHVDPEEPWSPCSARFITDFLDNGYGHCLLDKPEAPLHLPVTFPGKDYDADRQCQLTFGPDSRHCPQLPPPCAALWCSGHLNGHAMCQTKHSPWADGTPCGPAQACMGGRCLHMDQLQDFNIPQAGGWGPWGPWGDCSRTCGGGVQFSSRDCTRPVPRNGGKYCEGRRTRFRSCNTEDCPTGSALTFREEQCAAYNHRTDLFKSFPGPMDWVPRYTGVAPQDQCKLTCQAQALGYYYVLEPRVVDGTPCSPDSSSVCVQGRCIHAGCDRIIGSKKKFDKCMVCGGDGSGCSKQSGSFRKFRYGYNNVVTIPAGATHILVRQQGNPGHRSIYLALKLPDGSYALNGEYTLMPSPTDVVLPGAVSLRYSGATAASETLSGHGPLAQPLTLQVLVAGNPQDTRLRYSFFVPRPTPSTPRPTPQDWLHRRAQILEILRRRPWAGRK

[2] = molecular target: T2, purified recombinant human Aggrecanase-2 (Ag2t-Phe628-Strep) (Homo sapiens, UniProt Q9UNA0); assay: In vitro fluorescence screen for Aggrecanase-2 inhibitors; type: biochemical; details: Table 1; read-out: Agg 2 IC50
T2 construct: the form used is denoted as Ag2t-Phe628-Strep (MW=41,737)
T2 sequence (Q9UNA0 262-628): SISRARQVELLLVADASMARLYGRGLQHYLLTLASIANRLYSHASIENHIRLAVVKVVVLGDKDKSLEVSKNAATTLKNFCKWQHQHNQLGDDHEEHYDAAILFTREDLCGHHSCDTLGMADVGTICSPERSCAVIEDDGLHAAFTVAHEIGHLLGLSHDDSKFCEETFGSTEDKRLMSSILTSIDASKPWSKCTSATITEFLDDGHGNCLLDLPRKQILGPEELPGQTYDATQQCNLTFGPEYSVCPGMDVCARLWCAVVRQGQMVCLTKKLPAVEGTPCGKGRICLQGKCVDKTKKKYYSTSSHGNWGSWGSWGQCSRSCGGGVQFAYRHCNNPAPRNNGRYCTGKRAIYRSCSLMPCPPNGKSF

[3] = molecular target: T3, recombinant human catalytic domain of MMP-13 (Homo sapiens, UniProt P45452); assay: In vitro fluorescence assay of MMP-13 activity; type: biochemical; details: Table 1; unit inferred
T3 construct: catalytic domain of MMP-13 (165 amino acids, residues 104-268, 19 kDa)

[4] = molecular target: T4, recombinant human catalytic domain of MMP-14 (Homo sapiens, UniProt P50281); assay: In vitro fluorescence assay of MMP-14 activity; type: biochemical; details: Table 1; for IC50: unit inferred
T4 construct: 177 amino acids corresponding to Tyr89-Gly265 of mature human enzyme; purchased Chemicon International, Inc. CC1041

MMP-1 = molecular target: T5, MMP-1 (Homo sapiens, UniProt P03956); assay: MMP-1 of Table 1; type: biochemical; details: for IC50: unit inferred; for MMP-1: unit not given
T5 sequence (P03956 100-469): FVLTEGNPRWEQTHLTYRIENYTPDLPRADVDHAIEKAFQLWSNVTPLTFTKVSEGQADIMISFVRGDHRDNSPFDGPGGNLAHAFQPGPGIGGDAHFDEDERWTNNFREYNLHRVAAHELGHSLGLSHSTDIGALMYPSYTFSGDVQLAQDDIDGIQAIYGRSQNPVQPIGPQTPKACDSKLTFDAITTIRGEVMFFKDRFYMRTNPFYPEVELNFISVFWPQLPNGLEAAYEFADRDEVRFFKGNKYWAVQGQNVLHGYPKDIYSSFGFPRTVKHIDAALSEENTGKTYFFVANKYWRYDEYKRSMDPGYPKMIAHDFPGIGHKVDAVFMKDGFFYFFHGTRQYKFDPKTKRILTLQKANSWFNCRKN

recombinant human MMP-2 = molecular target: T6, recombinant human MMP-2 (Homo sapiens, UniProt P08253); assay: In vitro fluorescence assay of MMP-2 activity
T6 sequence (P08253 110-660): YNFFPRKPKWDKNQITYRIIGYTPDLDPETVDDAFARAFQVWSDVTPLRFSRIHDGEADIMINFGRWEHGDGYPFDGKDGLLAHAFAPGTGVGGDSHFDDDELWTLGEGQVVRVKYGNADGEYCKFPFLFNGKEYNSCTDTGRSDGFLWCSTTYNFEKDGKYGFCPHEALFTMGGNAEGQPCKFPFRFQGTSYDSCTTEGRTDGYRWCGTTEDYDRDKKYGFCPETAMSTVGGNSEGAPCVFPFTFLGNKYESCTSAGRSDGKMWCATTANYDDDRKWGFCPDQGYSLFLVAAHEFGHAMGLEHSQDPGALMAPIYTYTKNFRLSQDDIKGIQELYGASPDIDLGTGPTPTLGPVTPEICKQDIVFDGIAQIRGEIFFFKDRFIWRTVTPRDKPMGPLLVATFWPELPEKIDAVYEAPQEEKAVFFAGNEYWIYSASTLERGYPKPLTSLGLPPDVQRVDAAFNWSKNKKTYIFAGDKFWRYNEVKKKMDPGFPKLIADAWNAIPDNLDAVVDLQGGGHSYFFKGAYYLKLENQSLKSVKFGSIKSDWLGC

Structure (SMILES) | IC50 [1] [nM] | IC50 [2] [nM] | IC50 [3] [µM] | IC50 [4] [µM] | IC50 (MMP-1) [µM] | IC50 (recombinant human MMP-2) [µM] | MMP-1 (MMP-1) | Ki [1] [nM] | MMP-14 ([4]; unit not given) | IC50 (recombinant human MMP-2; read-out: MMP-2, Table 1, unit inferred) [µM]
O=C(O)CC[C@H](NC(=O)c1ccc(-c2ccccc2)cc1)C(=O)NC1Cc2ccccc2C1 [Example 6A, N^2-(1,1′-biphenyl-4-ylcarbonyl)-N^1-2,3-dihydro-1H-inden-2-yl-L-α-glutamine] | 150 | 740 | > 50 | > 200 | > 50 | 29.8 | – | – | – | –
CC(C)(C)CNC(=O)[C@H](CCC(=O)O)NC(=O)c1ccc(-c2ccccc2)cc1 [Example 8UUU, N^2-(biphenyl-4-ylcarbonyl)-N^1-(2,2-dimethylpropyl)-L-α-glutamine] | 61 | 660 | ~50 | > 200 | – | 8.9 | no inh | 60 | – | –
CCCCCCNC(=O)[C@H](CCC(=O)O)NC(=O)c1ccc(-c2ccccc2)cc1 [Example 8VVV, N^2-(biphenyl-4-ylcarbonyl)-N^1-hexyl-L-α-glutamine] | 30 | 420 | ~50 | > 66.6 | – | 5.6 | no inh | 38 | – | –
O=C(O)CC[C@H](NC(=O)c1ccc(-c2ccccc2)cc1)C(=O)NCCCCCO [Example 8WWW, N^2-(biphenyl-4-ylcarbonyl)-N^1-(5-hydroxypentyl)-L-α-glutamine] | 36 | 840 | ~200 | > 200 | – | 7.4 | no inh | – | – | –
O=C(O)CC[C@H](NC(=O)c1ccc(-c2ccccc2)cc1)C(=O)NCCCCCCO [Example 8XXX, N^2-(biphenyl-4-ylcarbonyl)-N^1-(6-hydroxyhexyl)-L-α-glutamine] | 30 | 930 | ~50 | > 200 | – | 7.9 | no inh | – | – | –
CCCNC(=O)[C@H](CCC(=O)O)NC(=O)c1ccc(-c2ccccc2)cc1 [Example 8YYY, N^2-(biphenyl-4-ylcarbonyl)-N^1-propyl-L-α-glutamine] | 100 | 1600 | > 50 | > 200 | – | 9.4 | no inh | – | – | –
COc1cc(CNC(=O)[C@H](CCC(=O)NO)NC(=O)c2ccc(-c3ccccc3)cc2)cc(OC)c1OC [Example 33A, N^2-(1,1′-biphenyl-4-ylcarbonyl)-N^5-hydroxy-N^1-(3,4,5-trimethoxybenzyl)-L-α-glutamamide] | < 10 | 2.6 | 0.032 | 0.112 | 1.75 | – | – | – | – | 0.0047

More lines, main results first:

IC50 [1] [nM] | IC50 [2] [nM] | IC50 [3] [µM] | IC50 [4] [µM] | IC50 (MMP-1) [µM] | IC50 (recombinant human MMP-2) [µM] | MMP-1 (MMP-1) | Ki [1] [nM] | MMP-14 ([4]; unit not given) | Structure (SMILES) | IC50 (recombinant human MMP-2; read-out: MMP-2, Table 1, unit inferred) [µM]
74 | 650 | 19 | ~25 | – | 2.3 | no inh | – | – | O=C(O)CC[C@H](NC(=O)c1ccc(-c2ccccc2)cc1)C(=O)NCc1ccc(Cl)c(Cl)c1 [Example 8BB, N^2-(1,1′-biphenyl-4-ylcarbonyl)-N^1-(3,4-dichlorobenzyl)-L-α-glutamine] | –
< 30 | 133 | ~50 | – | > 200 | 9 | – | 14 | no inh | CC(C)(Cc1ccc(Cl)cc1)NC(=O)[C@H](CCC(=O)O)NC(=O)c1ccc(-c2ccccc2)cc1 [Example 8NN, N^2-(biphenyl-4-ylcarbonyl)-N^1-[2-(4-chlorophenyl)-1,1-dimethylethyl]-L-α-glutamine] | –
< 30 | 85 | ~50 | > 66.6 | > 200 | 6 | – | 10 | – | CC(C)(Cc1ccccc1)NC(=O)[C@H](CCC(=O)O)NC(=O)c1ccc(-c2ccccc2)cc1 [Example 8PP, N^2-(biphenyl-4-ylcarbonyl)-N^1-(1,1-dimethyl-2-phenylethyl)-L-α-glutamine] | –
100 | 800 | ~50 | > 66.6 | – | 12.4 | no inh | – | – | O=C(O)CC[C@H](NC(=O)c1ccc(-c2ccccc2)cc1)C(=O)NCCc1ccc(F)cc1 [Example 8SS, N^2-(biphenyl-4-ylcarbonyl)-N^1-[2-(4-fluorophenyl)ethyl]-L-α-glutamine] | –
100 | 1900 | ~50 | > 66.6 | – | 9.1 | no inh | – | – | O=C(O)CC[C@H](NC(=O)c1ccc(-c2ccccc2)cc1)C(=O)NCCc1ccccc1Cl [Example 8VV, N^2-(biphenyl-4-ylcarbonyl)-N^1-[2-(2-chlorophenyl)ethyl]-L-α-glutamine] | –
75 | 971 | ~22 | ~25 | – | ~2.5 | no inh | – | – | O=C(O)CC[C@H](NC(=O)c1ccc(-c2ccccc2)cc1)C(=O)NCc1ccc(Oc2ccccc2)cc1 [Example 8W, N^2-(1,1′-biphenyl-4-ylcarbonyl)-N^1-(4-phenoxybenzyl)-L-α-glutamine] | –
70 | 350 | ~50 | > 66.6 | – | 13.3 | no inh | – | – | O=C(O)CC[C@H](NC(=O)c1ccc(-c2ccccc2)cc1)C(=O)NCCc1cccs1 [Example 8WW, N^2-(biphenyl-4-ylcarbonyl)-N^1-[2-(2-thienyl)ethyl]-L-α-glutamine] | –
100 | 1100 | ~67 | ~25 | – | 7 | no inh | – | – | COc1cccc(CCNC(=O)[C@H](CCC(=O)O)NC(=O)c2ccc(-c3ccccc3)cc2)c1 [Example 8X, N^2-(1,1′-biphenyl-4-ylcarbonyl)-N^1-[2-(3-methoxyphenyl)ethyl]-L-α-glutamine] | –
50 | 520 | ~67 | ~25 | – | 5.53 | no inh | – | – | COc1ccc(CNC(=O)[C@H](CCC(=O)O)NC(=O)c2ccc(-c3ccccc3)cc2)c(OC)c1 [Example 8Y, N^2-(1,1′-biphenyl-4-ylcarbonyl)-N^1-(2,4-dimethoxybenzyl)-L-α-glutamine] | –
80 | 680 | ~67 | ~25 | – | 3.82 | no inh | – | – | COc1ccccc1CNC(=O)[C@H](CCC(=O)O)NC(=O)c1ccc(-c2ccccc2)cc1 [Example 8Z, N^2-(1,1′-biphenyl-4-ylcarbonyl)-N^1-(2-methoxybenzyl)-L-α-glutamine] | –
